Legend:
Assay type in all cases: biochemical
BChE = BChE (Homo sapiens, UniProt P06276); test: Anticholinesterase activity, modified colorimetric Ellman method; conditions: for inhibition at 100 µM / inhibition at 1000 µM: read-out: BChE % inhibition
recombinant hMAO B = target: T1, recombinant hMAO B (Homo sapiens, UniProt P27338); test: MAO B inhibition, fluorometric method; conditions: for inhibition at 100 µM / inhibition at 1000 µM: read-out: MAO B % inhibition; for Selectivity and indexes: selective for MAO-B (over MAO A)
T1 sequence (P27338 1-520): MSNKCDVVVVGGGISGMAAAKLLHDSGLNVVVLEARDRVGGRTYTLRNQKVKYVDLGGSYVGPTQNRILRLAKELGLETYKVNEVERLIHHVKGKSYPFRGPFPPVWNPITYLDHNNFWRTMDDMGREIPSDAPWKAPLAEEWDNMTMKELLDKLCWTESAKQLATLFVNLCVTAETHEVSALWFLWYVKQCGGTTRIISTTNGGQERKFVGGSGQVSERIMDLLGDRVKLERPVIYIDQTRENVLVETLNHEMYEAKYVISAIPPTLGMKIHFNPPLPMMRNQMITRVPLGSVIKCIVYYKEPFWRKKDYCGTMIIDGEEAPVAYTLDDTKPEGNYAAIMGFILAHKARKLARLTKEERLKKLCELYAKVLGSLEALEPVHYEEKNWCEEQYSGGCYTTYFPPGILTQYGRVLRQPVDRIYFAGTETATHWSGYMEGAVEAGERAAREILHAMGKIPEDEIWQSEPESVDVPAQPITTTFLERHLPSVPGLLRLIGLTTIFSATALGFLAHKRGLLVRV

AChE = AChE (Homo sapiens, UniProt P22303); test: Anticholinesterase activity, modified colorimetric Ellman method; conditions: for inhibition at 100 µM / inhibition at 1000 µM: read-out: AChE % inhibition; for Selectivity and indexes: selective for AChE (over BChE)
hMAO A = target: T2, hMAO A (Homo sapiens, UniProt P21397); test: MAO A inhibition, fluorometric method; conditions: for inhibition at 100 µM / inhibition at 1000 µM: read-out: MAO A % inhibition
T2 sequence (P21397 1-527): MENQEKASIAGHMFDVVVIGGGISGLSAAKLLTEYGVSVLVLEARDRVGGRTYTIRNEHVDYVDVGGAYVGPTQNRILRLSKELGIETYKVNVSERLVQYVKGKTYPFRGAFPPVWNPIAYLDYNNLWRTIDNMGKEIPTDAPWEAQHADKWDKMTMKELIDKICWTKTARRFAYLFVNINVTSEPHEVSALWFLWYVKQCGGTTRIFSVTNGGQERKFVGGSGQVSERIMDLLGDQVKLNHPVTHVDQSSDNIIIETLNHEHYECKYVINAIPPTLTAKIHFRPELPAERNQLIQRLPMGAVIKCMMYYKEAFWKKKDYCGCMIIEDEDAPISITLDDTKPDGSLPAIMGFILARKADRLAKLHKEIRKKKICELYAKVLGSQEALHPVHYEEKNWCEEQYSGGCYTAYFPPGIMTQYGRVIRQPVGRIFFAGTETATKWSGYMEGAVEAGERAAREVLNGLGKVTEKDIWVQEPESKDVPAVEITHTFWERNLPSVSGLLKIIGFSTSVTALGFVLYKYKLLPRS

BChE, sequence (P06276 29-602, species assumed): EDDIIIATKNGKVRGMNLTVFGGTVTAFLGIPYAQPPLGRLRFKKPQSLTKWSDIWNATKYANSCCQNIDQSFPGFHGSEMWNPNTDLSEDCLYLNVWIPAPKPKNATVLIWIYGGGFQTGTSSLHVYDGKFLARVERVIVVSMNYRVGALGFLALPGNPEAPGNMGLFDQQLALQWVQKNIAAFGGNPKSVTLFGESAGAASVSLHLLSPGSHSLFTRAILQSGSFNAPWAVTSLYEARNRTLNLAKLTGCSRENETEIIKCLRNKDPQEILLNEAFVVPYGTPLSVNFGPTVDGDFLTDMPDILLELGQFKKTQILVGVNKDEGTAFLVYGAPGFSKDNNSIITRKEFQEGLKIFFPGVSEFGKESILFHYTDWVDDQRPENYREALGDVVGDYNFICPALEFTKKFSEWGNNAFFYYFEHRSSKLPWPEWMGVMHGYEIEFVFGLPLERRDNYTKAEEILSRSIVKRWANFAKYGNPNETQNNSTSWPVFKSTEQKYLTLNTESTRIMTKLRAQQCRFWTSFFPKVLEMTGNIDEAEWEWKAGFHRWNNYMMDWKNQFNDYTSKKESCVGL
AChE, sequence (P22303 32-614): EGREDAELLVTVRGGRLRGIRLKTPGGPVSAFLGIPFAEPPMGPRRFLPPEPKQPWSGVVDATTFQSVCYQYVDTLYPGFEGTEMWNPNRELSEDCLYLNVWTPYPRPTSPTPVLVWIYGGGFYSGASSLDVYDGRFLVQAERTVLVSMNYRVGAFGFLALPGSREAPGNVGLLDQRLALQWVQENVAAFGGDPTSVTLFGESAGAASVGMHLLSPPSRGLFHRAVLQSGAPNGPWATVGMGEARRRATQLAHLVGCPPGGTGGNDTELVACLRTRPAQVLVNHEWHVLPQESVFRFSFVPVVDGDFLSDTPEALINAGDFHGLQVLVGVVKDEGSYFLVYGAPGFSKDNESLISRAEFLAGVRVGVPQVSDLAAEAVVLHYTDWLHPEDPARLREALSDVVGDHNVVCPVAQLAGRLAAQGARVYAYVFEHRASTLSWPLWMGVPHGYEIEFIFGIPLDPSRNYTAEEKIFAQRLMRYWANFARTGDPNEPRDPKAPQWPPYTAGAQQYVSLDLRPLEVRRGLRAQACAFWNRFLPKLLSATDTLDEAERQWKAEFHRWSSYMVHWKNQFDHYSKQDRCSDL

SMILES | IC50 (BChE) [µM] | inhibition at 100 µM (BChE) [%] | inhibition at 1000 µM (BChE) [%] | IC50 (recombinant hMAO B; MAO B IC50, tables) [µM] | IC50 (recombinant hMAO B; MAO B IC50, text) [µM] | inhibition at 100 µM (recombinant hMAO B) [%] | inhibition at 1000 µM (recombinant hMAO B) [%] | Selectivity and indexes (recombinant hMAO B) | IC50 (AChE) [µM] | inhibition at 100 µM (AChE) [%] | inhibition at 1000 µM (AChE) [%] | Selectivity and indexes (AChE) | IC50 (hMAO A) [µM] | inhibition at 100 µM (hMAO A) [%] | inhibition at 1000 µM (hMAO A) [%] | Selectivity and indexes (hMAO A; selective for MAO-A (over MAO B)) | inhibition at 10 µM (recombinant hMAO B; read-out: MAO B inhibition) [%]
COc1ccc(C(=O)C=Cc2ccc(NC(=O)CN3CCN(C)CC3)cc2)cc1OC [Compound 4a, N-(4-(3-(3,4-Dimethoxyphenyl)-3-oxoprop-1-en-1-yl)phenyl)-2-(4-methylpiperazin-1-yl)acetamide] | > 1000 | 24.6 ± 0.974 | 42.5 ± 1.85 | 0.274 ± 0.012 | < 1 | 80.5 ± 2.24 | 84 ± 1.93 | MAO-B/>1000 | 0.068 ± 0.003 | 90.3 ± 1.86 | 93.5 ± 3.16 | AChE/>1000 | > 1000 | 38.7 ± 1.06 | 47.7 ± 2.04 |  | 
CCN1CCN(CC(=O)Nc2ccc(C=CC(=O)c3ccc(OC)c(OC)c3)cc2)CC1 [Compound 4b, N-(4-(3-(3,4-Dimethoxyphenyl)-3-oxoprop-1-en-1-yl)phenyl)-2-(4-ethylpiperazin-1-yl)acetamide] | > 1000 | 27 ± 0.877 | 31.1 ± 1.03 | > 100 |  | 40.1 ± 1.97 | 60.4 ± 2.27 |  | 0.093 ± 0.003 | 88.7 ± 2.23 | 92.6 ± 2.45 | AChE/>1000 | > 100 | 31.2 ± 1.24 | 53.1 ± 2.17 |  | 
COc1ccc(C(=O)C=Cc2ccc(NC(=O)CN3CCN(C(C)C)CC3)cc2)cc1OC [Compound 4c, N-(4-(3-(3,4-Dimethoxyphenyl)-3-oxoprop-1-en-1-yl)phenyl)-2-(4-isopropylpiperazin-1-yl)acetamide] | > 1000 | 25.5 ± 1.1 | 46 ± 1.92 | > 1000 |  | 28.9 ± 1.02 | 41.1 ± 0.941 |  | > 100 | 48.2 ± 1.98 | 79.2 ± 3.03 |  | > 1000 | 39 ± 0.933 | 47.4 ± 0.836 |  | 
C=CCN1CCN(CC(=O)Nc2ccc(C=CC(=O)c3ccc(OC)c(OC)c3)cc2)CC1 [Compound 4d, 2-(4-Allylpiperazin-1-yl)-N-(4-(3-(3,4-dimethoxyphenyl)-3-oxoprop-1-en-1-yl)phenyl)acetamide] | > 1000 | 20.1 ± 0.964 | 40.3 ± 1.21 | > 1000 |  | 30.1 ± 0.957 | 36.7 ± 1.04 |  | > 100 | 40 ± 1.02 | 80.7 ± 3.34 |  | > 100 | 41.4 ± 1.96 | 55 ± 2.06 | MAO-A/>10 | 
C#CCN1CCN(CC(=O)Nc2ccc(C=CC(=O)c3ccc(OC)c(OC)c3)cc2)CC1 [Compound 4e, N-(4-(3-(3,4-Dimethoxyphenyl)-3-oxoprop-1-en-1-yl)phenyl)-2-(4-(prop-2-yn-1-yl)piperazin-1-yl)acetamide] | > 1000 | 21.9 ± 0.835 | 38 ± 0.964 | > 100 |  | 39.3 ± 1.48 | 78.2 ± 2.48 |  | > 100 | 39.4 ± 1.32 | 67.2 ± 2.11 |  | > 100 | 44.2 ± 1.87 | 61.4 ± 1.95 |  | 
COc1ccc(C(=O)C=Cc2ccc(NC(=O)CN3CCN(C=O)CC3)cc2)cc1OC [Compound 4f, N-(4-(3-(3,4-Dimethoxyphenyl)-3-oxoprop-1-en-1-yl)phenyl)-2-(4-formylpiperazin-1-yl)acetamide] | > 1000 | 24.3 ± 0.829 | 31.7 ± 1.37 | 0.137 ± 0.005 | < 1 | 88.6 ± 1.83 | 90.7 ± 2.62 | MAO-B/>1000 | 0.048 ± 0.002 | 94.8 ± 3.96 | 96.8 ± 2.93 | AChE/>1000 | > 1000 | 28.8 ± 0.861 | 40.8 ± 0.955 |  | 88.6 ± 1.83

From publication PMC12560751 (RSC Advances, 2025)
